Laboratory results from patent US11390616B2 (BRISTOL-MYERS SQUIBB COMPANY, priority 2015, dated 2022).
pEC50: −log10 of the molar value.

The compounds below were run against T1, human APJ receptor (Homo sapiens, UniProt P35414) (assay: Intracellular cAMP accumulation assay (APJ hcAMP, HTRF)). Conditions: HEK293 cells stably expressing human APJ receptor; inhibition of forskolin-mediated cAMP production; read-out: APJ cAMP Potency range.
T1 construct: expressed in transfected cells; host or cells: HEK293
T1 sequence (P35414 1-380): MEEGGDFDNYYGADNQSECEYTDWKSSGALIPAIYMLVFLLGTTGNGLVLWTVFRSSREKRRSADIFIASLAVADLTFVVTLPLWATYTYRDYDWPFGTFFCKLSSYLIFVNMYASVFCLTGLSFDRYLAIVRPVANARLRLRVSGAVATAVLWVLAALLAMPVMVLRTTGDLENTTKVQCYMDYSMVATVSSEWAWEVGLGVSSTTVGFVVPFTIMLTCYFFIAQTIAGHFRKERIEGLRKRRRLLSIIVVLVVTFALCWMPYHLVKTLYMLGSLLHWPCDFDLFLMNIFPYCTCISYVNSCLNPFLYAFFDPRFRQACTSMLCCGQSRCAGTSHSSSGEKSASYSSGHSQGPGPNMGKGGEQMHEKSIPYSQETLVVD
Assay type: cell-based
Description: Intracellular cAMP Accumulation Assay
HEK293 cells stably expressing human APJ receptor were used to assess the activity of compounds. Cultured cells were detached and resuspended in the cAMP Homogeneous Time-Resolved Fluorescence (HTRF) assay buffer (Cisbio cat; #62AM4PEJ). The assay was performed in 384-well assay plates (Perkin-Elmer; cat #6008289) according to assay protocol provided by the manufacturer. Serial dilutions of a compound together with assay buffer containing […] IBMX and 2 μM forskolin were added to each well containing 5,000 cells and incubated for 30 minutes at room temperature. Subsequently, cAMP D2 reagent was added in the lysis buffer followed by the EuK antibody (Cisbio; cat #62AM4PEJ) and incubated for 60 min. The fluorescence emission ratio was measured using fluorometer. The intracellular cAMP concentrations (compound-stimulated inhibition of forskolin-mediated cAMP production) were calculated by extrapolation from a standard curve using known cAMP concentrations. The EC50 values were obtained by fitting the data to a sigmoidal concentration-response curve with variable slope. The maximal achievable inhibition of forskolin-induced cAMP levels (Ymax) for each compound was expressed as relative percentage of inhibition attained using pyroglutamated apelin-13 ((Pyr1)apelin-13) peptide, which was set to 100%.
The examples disclosed below were tested in the APJ in vitro assays described above and were found having human APJ cyclic AMP (hcAMP) activity. The EC50 value of each compound is presented at the end of the example description.
The biological activity of the exemplified compounds of this invention determined by the assay described above is shown at the end of each example.

SMILES | pEC50
CCCCc1nc(O)c(Cc2ccc(-c3ccc(Cl)cc3)nc2)c(=O)n1-c1c(OC)cccc1OC [Example 14, 2-butyl-5-{[6-(4-chlorophenyl)pyridin-3-yl]methyl}-3-(2,6-dimethoxyphenyl)-6-hydroxy-3,4-dihydropyrimidin-4-one] | 8.00 to 11.00
CCCCc1nc(O)c(Cc2ccc(-n3cc(Cl)ccc3=O)cc2)c(=O)n1-c1c(OC)cccc1OC [Example 49, 2-butyl-5-{[4-(5-chloro-2-oxo-1,2-dihydropyridin-1-yl)phenyl]methyl}-3-(2,6-dimethoxyphenyl)-6-hydroxy-3,4-dihydropyrimidin-4-one] | 8.00 to 11.00
CCCCc1nc(O)c(Cc2ccc(-c3csnn3)cc2)c(=O)n1-c1c(OC)cccc1OC [Example 12, 2-butyl-3-(2,6-dimethoxyphenyl)-6-hydroxy-5-{[4-(1,2,3-thiadiazol-4-yl)phenyl]methyl}-3,4-dihydropyrimidin-4-one] | 8.00 to 11.00
CCCCc1nc(O)c(Cc2nc(-c3ccc(C(F)(F)F)cc3)no2)c(=O)n1-c1c(OC)cccc1OC [Example 20, 2-butyl-3-(2,6-dimethoxyphenyl)-6-hydroxy-5-({3-[4-(trifluoromethyl)phenyl]-1,2,4-oxadiazol-5-yl}methyl)-3,4-dihydropyrimidin-4-one] | 8.00 to 11.00
CCCCc1nc(O)c(Cc2ccc(S(C)(=O)=O)cc2)c(=O)n1-c1c(OC)cccc1OC [Example 7, 2-butyl-3-(2,6-dimethoxyphenyl)-6-hydroxy-5-[(4-methanesulfonylphenyl)methyl]-3,4-dihydropyrimidin-4-one] | 7.00 to 8.00
CC[C@@H](c1cc(F)cc(F)c1)n1c(COC(C)C)nc(=O)c(Cc2ccc(-c3cccnc3C)cc2)c1O [Example 111, 1-[(1S)-1-(3,5-difluorophenyl)propyl]-6-hydroxy-5-{[4-(2-methylpyridin-3-yl)phenyl]methyl}-2-[(propan-2-yloxy)methyl]-1,4-dihydropyrimidin-4-one] | 8.00 to 11.00
CCCCc1nc(O)c(Cc2ccc(Cn3cccn3)cc2)c(=O)n1-c1c(OC)cccc1OC [Example 27, 2-butyl-3-(2,6-dimethoxyphenyl)-6-hydroxy-5-{[4-(1H-pyrazol-1-ylmethyl)phenyl]methyl}-3,4-dihydropyrimidin-4-one] | 8.00 to 11.00
CCCCc1nc(=O)c(Cc2ccc(-c3ccccc3)cc2)c(O)n1-c1c(CC)cccc1CC [Example 68, 5-({[1,1′-biphenyl]-4-yl}methyl)-2-butyl-1-(2,6-diethylphenyl)-6-hydroxy-1,4-dihydropyrimidin-4-one] | 7.00 to 8.00
CC[C@@H](c1cc(F)cc(F)c1)n1c(-c2ccn(CC)n2)nc(=O)c(Cc2ccc(-c3ccncc3C)cc2)c1O [Example 136, 1-[(1S)-1-(3,5-difluorophenyl)propyl]-2-(1-ethyl-1H-pyrazol-3-yl)-6-hydroxy-5-{[4-(3-methylpyridin-4-yl)phenyl]methyl}-1,4-dihydropyrimidin-4-one] | 8.00 to 11.00
CC[C@@H](c1cc(F)cc(F)c1)n1c(COC(C)C)nc(=O)c(Cc2ccc(-c3ccc(F)nc3C)cc2)c1O [Example 112, 1-[(1S)-1-(3,5-difluorophenyl)propyl]-5-{[4-(6-fluoro-2-methylpyridin-3-yl)phenyl]methyl}-6-hydroxy-2-[(propan-2-yloxy)methyl]-1,4-dihydropyrimidin-4-one] | 8.00 to 11.00
CCc1cccc(CC)c1-n1c(-c2ccn(C)n2)nc(=O)c(Cc2ccc(-c3ccnc(F)c3C)cc2F)c1O [Example 86, 1-(2,6-diethylphenyl)-5-{[2-fluoro-4-(2-fluoro-3-methylpyridin-4-yl)phenyl]methyl}-6-hydroxy-2-(1-methyl-1H-pyrazol-3-yl)-1,4-dihydropyrimidin-4-one] | 8.00 to 11.00
COc1cccc(OC)c1-n1c(CCC(C)C)nc(O)c(Cc2nnc(-c3ccc(C)cc3)o2)c1=O [Example 21, 3-(2,6-dimethoxyphenyl)-6-hydroxy-2-(3-methylbutyl)-5-{[5-(4-methylphenyl)-1,3,4-oxadiazol-2-yl]methyl}-3,4-dihydropyrimidin-4-one] | 7.00 to 8.00
CCCCc1nc(=O)c(Cc2cccc(-c3cccnc3C)c2)c(O)n1[C@@H](CC)c1cc(F)cc(F)c1 [Example 129, 2-butyl-1-[(1S)-1-(3,5-difluorophenyl)propyl]-6-hydroxy-5-{[3-(2-methylpyridin-3-yl)phenyl]methyl}-1,4-dihydropyrimidin-4-one] | 7.00 to 8.00
CCCCc1nc(=O)c(Cc2ccc(-c3cccnc3C)cc2)c(O)n1[C@@H](CC)c1cccc(C#N)c1 [Example 96, 3-[(1S)-1-(2-butyl-6-hydroxy-5-{[4-(2-methylpyridin-3-yl)phenyl]methyl}-4-oxo-1,4-dihydropyrimidin-1-yl)propyl]benzonitrile] | 8.00 to 11.00
CCc1cccc(CC)c1-n1c(-c2ccn(CC(C)C)n2)nc(=O)c(Cc2ccc(-c3ccc(F)cc3C(N)=O)c(F)c2)c1O [Example 92, 4′-{[1-(2,6-diethylphenyl)-6-hydroxy-2-[1-(2-methylpropyl)-1H-pyrazol-3-yl]-4-oxo-1,4-dihydropyrimidin-5-yl]methyl}-2′,4-difluoro-[1,1′-biphenyl]-2-carboxamide] | 7.00 to 8.00
CCc1cccc(CC)c1-n1c(-c2csc(C)n2)nc(=O)c(Cc2ccc(-c3ccnc(F)c3C)c(F)c2)c1O [Example 78, 1-(2,6-diethylphenyl)-5-{[3-fluoro-4-(2-fluoro-3-methylpyridin-4-yl)phenyl]methyl}-6-hydroxy-2-(2-methyl-1,3-thiazol-4-yl)-1,4-dihydropyrimidin-4-one] | 8.00 to 11.00
CCCCc1nc(O)c(Cc2ccc(-n3ccc(C)cc3=O)cc2)c(=O)n1-c1c(OC)cccc1OC [Example 43, 2-butyl-3-(2,6-dimethoxyphenyl)-6-hydroxy-5-{[4-(4-methyl-2-oxo-1,2-dihydropyridin-1-yl)phenyl]methyl}-3,4-dihydropyrimidin-4-one] | 8.00 to 11.00
CCCCc1nc(O)c(Cc2ccc(-n3cc(F)ccc3=O)cc2)c(=O)n1-c1c(OC)cccc1OC [Example 47, 2-butyl-3-(2,6-dimethoxyphenyl)-5-{[4-(5-fluoro-2-oxo-1,2-dihydropyridin-1-yl)phenyl]methyl}-6-hydroxy-3,4-dihydropyrimidin-4-one] | 8.00 to 11.00
CCCCc1nc(O)c(Cc2ccc(-c3ncon3)c(F)c2)c(=O)n1-c1c(OC)cccc1OC [Example 13, 2-butyl-3-(2,6-dimethoxyphenyl)-5-{[3-fluoro-4-(1,2,4-oxadiazol-3-yl)phenyl]methyl}-6-hydroxy-3,4-dihydropyrimidin-4-one] | 8.00 to 11.00
CCCCc1nc(O)c(Cc2ccc(-c3nc(C)no3)cc2)c(=O)n1-c1c(OC)cccc1OC [Example 10, 2-butyl-3-(2,6-dimethoxyphenyl)-6-hydroxy-5-{[4-(3-methyl-1,2,4-oxadiazol-5-yl)phenyl]methyl}-3,4-dihydropyrimidin-4-one] | 8.00 to 11.00
CCCCc1nc(O)c(Cc2cnc(-c3ccc(Cl)cc3)s2)c(=O)n1-c1c(OC)cccc1OC [Example 26, 2-butyl-5-{[2-(4-chlorophenyl)-1,3-thiazol-5-yl]methyl}-3-(2,6-dimethoxyphenyl)-6-hydroxy-3,4-dihydropyrimidin-4-one] | 8.00 to 11.00
CCCCc1nc(=O)c(Cc2ccc(-c3ccnc(F)c3C)cc2)c(O)n1[C@@H](CC)c1cccc(F)c1 [Example 103, 2-butyl-5-{[4-(2-fluoro-3-methylpyridin-4-yl)phenyl]methyl}-1-[(1S)-1-(3-fluorophenyl)propyl]-6-hydroxy-1,4-dihydropyrimidin-4-one] | 8.00 to 11.00
CCc1cccc(CC)c1-n1c(-c2nc(C)cs2)nc(=O)c(Cc2ccc(-c3cccn(C)c3=O)c(F)c2)c1O [Example 83, 1-(2,6-diethylphenyl)-5-{[3-fluoro-4-(1-methyl-2-oxo-1,2-dihydropyridin-3-yl)phenyl]methyl}-6-hydroxy-2-(4-methyl-1,3-thiazol-2-yl)-1,4-dihydropyrimidin-4-one] | 8.00 to 11.00
CCCCc1nc(O)c(Cc2ccc(-c3ccc(Cl)cn3)cc2)c(=O)n1-c1c(OC)cccc1OC [Example 46, 2-butyl-5-{[4-(5-chloropyridin-2-yl)phenyl]methyl}-3-(2,6-dimethoxyphenyl)-6-hydroxy-3,4-dihydropyrimidin-4-one] | 8.00 to 11.00
CC[C@@H](c1cc(F)cc(F)c1)n1c(CCC2CC2)nc(=O)c(Cc2ccc(-c3cccnc3C)cc2)c1O [Example 109, 2-(2-cyclopropylethyl)-1-[(1S)-1-(3,5-difluorophenyl)propyl]-6-hydroxy-5-{[4-(2-methylpyridin-3-yl)phenyl]methyl}-1,4-dihydropyrimidin-4-one] | 8.00 to 11.00
